Measured values as given in patent US20260365670A1, “EGFR INHIBITORS AND USES THEREOF” (DIZAL (JIANGSU) PHARMACEUTICAL CO., LTD., priority 2022, published 2026).
Read-outs that look alike come from different tables or passages of the source.

Experiments:
A-431 = assay: Cell proliferation GI50, A-431 cells (Table 6); format: cell-based
EGFR Exon19Del = biological target: T1, EGFR Exon19Del (Homo sapiens, UniProt P00533, DEL746-750); assay: Inhibition of EGFR Exon19Del biochemical enzymatic activity (HTRF); settings: EGFR Del19, 1 mM ATP, 1 h, room temperature, read-out: IC50 @Del19
T1 construct: purchased Carna Bio
How it was run: (§1)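 Read-out is the HTRF 665/615 nm ratio (excitation 320 nm), taken as proportional to kinase activity after a 1 h room-temperature reaction with 1 mM ATP and 1 μM biotinylated TK substrate. IC50 values derive from four-parameter logistic fitting.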

[1] = biological target: T2, EGFR[T790M/C797S/d746-750] (Homo sapiens, UniProt P00533, C797S/DEL746-750/T790M); assay: Inhibition of EGFR[T790M/C797S/d746-750] biochemical enzymatic activity (HTRF); settings: EGFR T790M-C797S-Del19, 1 mM ATP, 1 h, room temperature, read-out: IC50 (nM) @T790M - C797S - Del19
T2 construct: purchased Carna Bio
How it was run: as §1

EGFR[T790M/C797S/L858R] = biological target: T3, EGFR[T790M/C797S/L858R] (Homo sapiens, UniProt P00533, C797S/L858R/T790M); assay: Inhibition of EGFR[T790M/C797S/L858R] biochemical enzymatic activity (HTRF); settings: EGFR T790M-C797S-L858R, 1 mM ATP, 1 h, room temperature, read-out: IC50 (nM) @T790M- C797S - L858R
T3 construct: purchased Carna Bio
How it was run: as §1

EGFR L858R = biological target: T4, EGFR L858R (Homo sapiens, UniProt P00533, L858R); assay: Inhibition of EGFR L858R biochemical enzymatic activity (HTRF); settings: 1 mM ATP, 1 h, room temperature, read-out: IC50 (nM) @L858R
T4 construct: purchased Carna Bio
T4 sequence (P00533 25-1210 L858R): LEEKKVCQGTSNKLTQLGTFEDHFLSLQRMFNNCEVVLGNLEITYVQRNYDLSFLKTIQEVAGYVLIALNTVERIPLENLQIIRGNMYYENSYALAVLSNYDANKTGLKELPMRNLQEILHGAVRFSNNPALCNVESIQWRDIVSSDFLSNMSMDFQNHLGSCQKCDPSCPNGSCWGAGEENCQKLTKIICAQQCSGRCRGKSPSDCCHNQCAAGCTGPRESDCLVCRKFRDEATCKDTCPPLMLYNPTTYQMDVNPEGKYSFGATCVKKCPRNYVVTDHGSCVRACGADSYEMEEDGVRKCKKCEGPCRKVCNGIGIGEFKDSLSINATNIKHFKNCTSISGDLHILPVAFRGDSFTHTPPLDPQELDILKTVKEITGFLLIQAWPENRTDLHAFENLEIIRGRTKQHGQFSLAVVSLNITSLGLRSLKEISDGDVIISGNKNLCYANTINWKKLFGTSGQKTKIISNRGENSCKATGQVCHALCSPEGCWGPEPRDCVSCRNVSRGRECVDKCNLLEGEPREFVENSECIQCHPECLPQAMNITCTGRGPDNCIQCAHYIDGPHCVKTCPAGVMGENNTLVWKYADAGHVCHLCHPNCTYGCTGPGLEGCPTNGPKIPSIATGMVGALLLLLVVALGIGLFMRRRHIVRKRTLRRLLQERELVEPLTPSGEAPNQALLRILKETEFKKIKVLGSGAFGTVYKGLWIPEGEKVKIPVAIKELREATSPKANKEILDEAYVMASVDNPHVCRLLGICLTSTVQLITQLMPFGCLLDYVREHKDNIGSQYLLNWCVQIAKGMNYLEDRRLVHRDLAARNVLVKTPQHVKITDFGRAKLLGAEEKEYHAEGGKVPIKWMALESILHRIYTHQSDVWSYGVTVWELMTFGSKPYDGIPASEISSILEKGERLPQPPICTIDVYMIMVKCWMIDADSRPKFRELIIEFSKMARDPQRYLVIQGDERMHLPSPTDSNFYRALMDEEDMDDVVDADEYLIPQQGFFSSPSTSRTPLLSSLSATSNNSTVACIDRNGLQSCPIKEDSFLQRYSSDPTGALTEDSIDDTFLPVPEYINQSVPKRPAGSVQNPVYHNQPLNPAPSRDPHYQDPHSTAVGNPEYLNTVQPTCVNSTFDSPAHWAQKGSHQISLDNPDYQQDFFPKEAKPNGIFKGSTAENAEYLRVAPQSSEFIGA
How it was run: as §1

EGFR (d746-750 C797S) = biological target: T5, EGFR (d746-750 C797S) (Homo sapiens, UniProt P00533, C797S/DEL746-750); assay: Inhibition of EGFR (d746-750 C797S) biochemical enzymatic activity (HTRF); settings: EGFR Del19-C797S, 1 mM ATP, 1 h, room temperature, read-out: IC50 (nM) @Del19-C797S
T5 construct: purchased signalchem
T5 sequence (P00533 with tags, fused parts or gaps DEL746-750/C797S limits assumed): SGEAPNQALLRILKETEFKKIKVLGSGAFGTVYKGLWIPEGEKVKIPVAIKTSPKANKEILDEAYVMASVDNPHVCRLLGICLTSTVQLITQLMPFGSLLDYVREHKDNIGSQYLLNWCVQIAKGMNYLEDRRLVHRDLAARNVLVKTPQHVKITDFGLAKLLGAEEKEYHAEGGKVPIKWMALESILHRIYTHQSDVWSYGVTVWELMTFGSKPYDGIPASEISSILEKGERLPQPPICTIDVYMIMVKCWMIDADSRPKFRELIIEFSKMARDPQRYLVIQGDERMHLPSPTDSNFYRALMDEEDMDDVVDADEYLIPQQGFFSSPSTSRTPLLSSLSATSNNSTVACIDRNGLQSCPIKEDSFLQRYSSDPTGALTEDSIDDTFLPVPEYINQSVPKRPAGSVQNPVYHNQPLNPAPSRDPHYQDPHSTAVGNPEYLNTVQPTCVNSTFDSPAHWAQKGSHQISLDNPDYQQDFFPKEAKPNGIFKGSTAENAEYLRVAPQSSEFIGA
How it was run: as §1

EGFR (C797S L858R) = biological target: T6, EGFR (C797S L858R) (Homo sapiens, UniProt P00533, C797S/L858R); assay: Inhibition of EGFR (C797S L858R) biochemical enzymatic activity (HTRF); settings: EGFR L858-C797S, 1 mM ATP, 1 h, room temperature, read-out: IC50 (nM) @L858-C797S
T6 construct: purchased signalchem
T6 sequence (P00533 25-1210 C797S/L858R): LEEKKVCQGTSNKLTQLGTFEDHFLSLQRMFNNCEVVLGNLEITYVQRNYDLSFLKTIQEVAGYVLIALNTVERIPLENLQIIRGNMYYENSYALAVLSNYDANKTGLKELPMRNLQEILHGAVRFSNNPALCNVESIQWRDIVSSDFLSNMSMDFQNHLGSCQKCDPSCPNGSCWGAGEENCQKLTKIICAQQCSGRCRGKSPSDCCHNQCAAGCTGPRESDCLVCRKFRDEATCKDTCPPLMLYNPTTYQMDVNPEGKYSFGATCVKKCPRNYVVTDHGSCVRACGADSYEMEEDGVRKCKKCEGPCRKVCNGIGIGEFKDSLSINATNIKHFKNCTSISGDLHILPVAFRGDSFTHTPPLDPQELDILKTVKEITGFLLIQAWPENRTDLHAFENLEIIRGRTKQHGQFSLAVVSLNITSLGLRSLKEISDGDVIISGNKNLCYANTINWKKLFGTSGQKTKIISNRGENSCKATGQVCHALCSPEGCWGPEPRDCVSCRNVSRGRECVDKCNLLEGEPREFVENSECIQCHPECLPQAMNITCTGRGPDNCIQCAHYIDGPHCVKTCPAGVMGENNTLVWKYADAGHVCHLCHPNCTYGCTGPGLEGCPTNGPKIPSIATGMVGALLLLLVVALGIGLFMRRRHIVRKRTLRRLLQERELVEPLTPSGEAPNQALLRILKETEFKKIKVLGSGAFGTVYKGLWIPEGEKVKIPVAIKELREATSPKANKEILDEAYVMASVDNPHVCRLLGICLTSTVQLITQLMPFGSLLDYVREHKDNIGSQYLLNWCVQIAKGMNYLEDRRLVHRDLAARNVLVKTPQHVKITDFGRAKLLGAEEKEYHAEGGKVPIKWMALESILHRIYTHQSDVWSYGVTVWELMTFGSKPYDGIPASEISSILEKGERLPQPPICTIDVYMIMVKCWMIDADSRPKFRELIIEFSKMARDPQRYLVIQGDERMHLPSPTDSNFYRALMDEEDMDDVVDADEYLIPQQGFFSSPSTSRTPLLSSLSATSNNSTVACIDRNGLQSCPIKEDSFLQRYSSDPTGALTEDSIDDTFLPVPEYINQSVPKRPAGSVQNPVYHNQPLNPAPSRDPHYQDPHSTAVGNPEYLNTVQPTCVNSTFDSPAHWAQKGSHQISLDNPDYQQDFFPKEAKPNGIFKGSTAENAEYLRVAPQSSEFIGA
How it was run: as §1

EGFR L858R/T790M = biological target: T7, EGFR L858R/T790M (Homo sapiens, UniProt P00533, L858R/T790M); assay: Inhibition of EGFR L858R/T790M biochemical enzymatic activity (HTRF); settings: EGFR L858R-T790M, 1 mM ATP, 1 h, room temperature, read-out: IC50 (nM) @L858R-T790M
T7 construct: purchased Carna Bio
How it was run: as §1

EGFR Exon19Del/T790M = biological target: T8, EGFR Exon19Del/T790M (Homo sapiens, UniProt P00533, DEL746-750/T790M); assay: Inhibition of EGFR Exon19Del/T790M biochemical enzymatic activity (HTRF); settings: EGFR Del19-T790M, 1 mM ATP, 1 h, room temperature, read-out: IC50 (nM) @Del19-T790M
T8 construct: purchased Carna Bio
T8 sequence (P00533 with tags, fused parts or gaps DEL746-750/T790M limits assumed): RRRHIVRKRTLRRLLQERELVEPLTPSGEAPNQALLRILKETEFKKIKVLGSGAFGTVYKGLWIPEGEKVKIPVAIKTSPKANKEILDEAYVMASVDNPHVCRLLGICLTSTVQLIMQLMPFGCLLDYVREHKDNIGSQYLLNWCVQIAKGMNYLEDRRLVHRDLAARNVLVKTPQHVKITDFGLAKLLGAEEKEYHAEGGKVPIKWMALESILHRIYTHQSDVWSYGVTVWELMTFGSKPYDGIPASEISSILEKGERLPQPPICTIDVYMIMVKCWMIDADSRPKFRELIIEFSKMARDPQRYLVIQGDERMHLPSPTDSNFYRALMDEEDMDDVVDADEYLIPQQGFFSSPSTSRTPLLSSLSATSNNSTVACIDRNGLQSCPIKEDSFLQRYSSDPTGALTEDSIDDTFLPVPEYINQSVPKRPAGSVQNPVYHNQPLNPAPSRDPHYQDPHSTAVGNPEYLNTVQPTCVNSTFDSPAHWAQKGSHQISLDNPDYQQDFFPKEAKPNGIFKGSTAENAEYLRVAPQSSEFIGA
How it was run: as §1

PC-9 = assay: Cell proliferation assay, PC-9 cells (CellTiter-Glo, 72 hours); format: cell-based; settings: PC9 cells, CellTiter-Glo, read-out: PC9 GI50
How it was run: (§2)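 Ba/F3 cells carrying EGFR mutants (5000/well) or PC-9 cells (500/well) in RPMI1640 were dosed with compound series after overnight attachment and grown 72 h. Viability read by CellTiter-Glo, with day-0 counts subtracted; GI50 from curve fits of % proliferation versus DMSO control.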

[2] = test system: Ba/F3 cells expressing EGFR mutations; assay: Cell proliferation assay, Ba/F3 cells expressing EGFR mutations (CellTiter-Glo, 72 hours); format: cell-based; settings: CellTiter-Glo
How it was run: as §2

EGFR wild type = biological target: T9, EGFR wild type (Homo sapiens, UniProt P00533); assay: Inhibition of EGFR wild type biochemical enzymatic activity (HTRF); settings: EGFR WT, 1 mM ATP, 1 h, room temperature, read-out: IC50 (nM) @WT
T9 construct: purchased Carna Bio
T9 sequence (P00533 25-1210): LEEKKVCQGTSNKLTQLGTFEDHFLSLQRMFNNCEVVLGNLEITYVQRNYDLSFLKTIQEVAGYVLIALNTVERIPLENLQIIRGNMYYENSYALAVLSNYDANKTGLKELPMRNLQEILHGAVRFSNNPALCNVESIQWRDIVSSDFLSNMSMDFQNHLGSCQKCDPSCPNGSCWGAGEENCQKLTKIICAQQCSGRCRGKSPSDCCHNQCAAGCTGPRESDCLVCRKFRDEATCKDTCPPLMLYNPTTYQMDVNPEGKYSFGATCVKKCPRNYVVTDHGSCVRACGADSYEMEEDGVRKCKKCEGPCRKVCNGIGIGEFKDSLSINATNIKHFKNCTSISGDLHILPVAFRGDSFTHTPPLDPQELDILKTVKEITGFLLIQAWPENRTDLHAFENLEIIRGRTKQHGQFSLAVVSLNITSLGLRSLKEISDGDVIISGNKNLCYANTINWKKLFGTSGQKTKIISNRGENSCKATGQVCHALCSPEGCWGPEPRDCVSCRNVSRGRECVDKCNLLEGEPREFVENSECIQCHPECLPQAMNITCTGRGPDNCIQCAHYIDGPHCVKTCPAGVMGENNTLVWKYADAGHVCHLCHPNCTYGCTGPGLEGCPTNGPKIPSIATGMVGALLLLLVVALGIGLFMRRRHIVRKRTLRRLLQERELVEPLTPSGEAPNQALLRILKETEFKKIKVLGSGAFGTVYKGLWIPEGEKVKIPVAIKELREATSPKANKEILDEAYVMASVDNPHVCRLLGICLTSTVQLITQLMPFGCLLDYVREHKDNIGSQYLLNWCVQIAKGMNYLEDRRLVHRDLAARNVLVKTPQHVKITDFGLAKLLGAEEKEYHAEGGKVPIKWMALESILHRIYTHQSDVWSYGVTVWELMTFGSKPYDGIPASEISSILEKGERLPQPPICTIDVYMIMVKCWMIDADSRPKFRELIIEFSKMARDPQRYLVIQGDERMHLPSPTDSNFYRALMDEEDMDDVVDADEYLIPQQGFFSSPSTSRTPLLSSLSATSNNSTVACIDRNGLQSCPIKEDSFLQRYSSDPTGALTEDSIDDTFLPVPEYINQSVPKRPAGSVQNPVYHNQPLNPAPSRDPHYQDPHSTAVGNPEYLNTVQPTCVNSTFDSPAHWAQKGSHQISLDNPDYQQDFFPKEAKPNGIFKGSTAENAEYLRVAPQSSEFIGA
How it was run: as §1

[3] = Homo sapiens, A-431, A-431 cells
[4] = Mus musculus, BaF3, 72 h, BaF3 cells, EGFR DEL19-C797S, read-out: DEL19-C797S/BaF3 GI50
[5] = Mus musculus, BaF3, 72 h, BaF3 cells, EGFR DEL19-T790-C797S, read-out: DEL19-T790-C797S/BaF3 GI50
[6] = Mus musculus, BaF3, 72 h, BaF3 cells, EGFR L858R, read-out: L858R/BaF3 GI50
[7] = Mus musculus, BaF3, 72 h, BaF3 cells, EGFR L858R-C797S, read-out: L858R-C797S/BaF3 GI50
[8] = Mus musculus, BaF3, 72 h, BaF3 cells, EGFR L858R-T790-C797S, read-out: L858R-T790-C797S/BaF3 GI50
[9] = Mus musculus, BaF3, 72 h, BaF3 cells, EGFR L858R-T790M, read-out: L858R-T790M/BaF3 GI50
[10] = Mus musculus, BaF3, 72 h, EGFR DEL19-T790M, read-out: DEL19-T790M GI50
[11] = BaF3 cells, EGFR DEL19-C797S, read-out: DEL19-C797S/BaF3 GI50
[12] = BaF3 cells, EGFR DEL19-T790-C797S, read-out: DEL19-T790-C797S/BaF3 GI50
[13] = BaF3 cells, EGFR L858R, read-out: L858R/BaF3 GI50
[14] = BaF3 cells, EGFR L858R-C797S, read-out: L858R-C797S/BaF3 GI50
[15] = BaF3 cells, EGFR L858R-T790-C797S, read-out: L858R-T790-C797S/BaF3 GI50
[16] = BaF3 cells, EGFR L858R-T790M, read-out: L858R-T790M/BaF3 GI50
[17] = EGFR DEL19-T790M, read-out: DEL19-T790M GI50

| Compound | GI50 (A-431; [3]) | IC50 (EGFR Exon19Del) | IC50 [1] | IC50 (EGFR[T790M/C797S/L858R]) | IC50 (EGFR L858R) | IC50 (EGFR (d746-750 C797S)) | IC50 (EGFR (C797S L858R)) | IC50 (EGFR L858R/T790M) | IC50 (EGFR Exon19Del/T790M) | GI50 (PC-9; Homo sapiens, PC-9, 72 h) | GI50 [2, 4] | GI50 [2, 5] | GI50 [2, 6] | GI50 [2, 7] | GI50 [2, 8] | GI50 [2, 9] | GI50 [2, 10] | IC50 (EGFR wild type) | GI50 (PC-9) | GI50 [2, 11] | further results |
| --- | --- | --- | --- | --- | --- | --- | --- | --- | --- | --- | --- | --- | --- | --- | --- | --- | --- | --- | --- | --- | --- |
| C[C@@H]1CCCOc2c(cnn2C)-c2cc(cn(C)c2=O)C(=O)Nc2nc3ccc(N4CCC(N(C)C)C4)cc3n2C1 (stereo partly drawn) [Example A27, (11R)-16-[3-(Dimethylamino)pyrrolidin-1-yl]-5,11,26-trimethyl-7-oxa-4,5,13,20,22,26-hexaazapentacyclo[22.3.1.0^{2,6}.0^{13,21}.0^{14,19}]octacosa-1(28),2(6),3,14,16,18,20,24-octaene-23,27-dione] | 453 nM | 6.1 nM | 13 nM | 20 nM | 25 nM | 5.5 nM | 21 nM | 26 nM | 15 nM | 21 nM | 1.2 nM | 1.9 nM | 3 nM | 7.1 nM | 2.2 nM | 6.8 nM | 3.5 nM | 290 nM | – | – | – |
| CN1CC2(C1)CN(c1ccc3nc4n(c3c1)C13CCC(CN(CCOc5c(cnn5C)-c5cc(cn(C)c5=O)C(=O)N4)C1)C3)C2 (single isomer, unassigned) [Example A92B] | – | 1.5 nM | 2.3 nM | 2.2 nM | 3.2 nM | 1 nM | 2.6 nM | 2.3 nM | 2.6 nM | – | – | – | – | – | – | – | – | 16 nM | 9.8 nM | 0.5 nM | GI50 (A-431; A-431 cells): 842 nM; GI50 [2, 12]: 1.1 nM; GI50 [2, 13]: 0.82 nM; GI50 [2, 14]: 1.6 nM; GI50 [2, 15]: 0.94 nM; GI50 [2, 16]: 3 nM; GI50 [2, 17]: 1.2 nM |
| C[C@@H]1CCCOc2c(cnn2C)-c2cc(cn(C)c2=O)C(=O)Nc2nc3ccc(N4CCN(C5CC5)CC4)cc3n2C1 [Example A48] | 573 nM | 3.1 nM | 3.1 nM | 4.4 nM | 40 nM | 2.1 nM | 28 nM | 5 nM | 2.8 nM | 38 nM | 9.4 nM | 48 nM | 20 nM | 26 nM | 21 nM | 94 nM | 53 nM | 2250 nM | – | – | – |
| C[C@@H]1CCCOc2c(cnn2C)-c2cc(cn(C)c2=O)C(=O)Nc2nc3ccc(N4CC5(CN(C)C5)C4)cc3n2C1 [Example A40] | 642 nM | 4.4 nM | 4.3 nM | 5.2 nM | 11 nM | 2.3 nM | 6.7 nM | 6.1 nM | 4.5 nM | 17 nM | 1.7 nM | 4.2 nM | 4 nM | 5.4 nM | 4.7 nM | 17 nM | 7.7 nM | 71 nM | – | – | – |
| CN1CCC12CCN(c1ccc3nc4n(c3c1)C13CCC(CN(CCOc5c(cnn5C)-c5cc(cn(C)c5=O)C(=O)N4)C1)C3)CC2 (single isomer, unassigned) [Example A67A] | – | 1020 nM | 1640 nM | > 5000 nM | > 5000 nM | 1080 nM | > 5000 nM | > 5000 nM | 4070 nM | – | – | – | – | – | – | – | – | > 5000 nM | 307 nM | 133 nM | GI50 (A-431; A-431 cells): 6350 nM; GI50 [2, 12]: 374 nM; GI50 [2, 13]: 530 nM; GI50 [2, 14]: 382 nM; GI50 [2, 15]: 258 nM; GI50 [2, 16]: 1040 nM; GI50 [2, 17]: 463 nM |
| CN1C2CC1CN(c1ccc3nc4n(c3c1)C13CCC(CN(CCOc5c(cnn5C)-c5cc(cn(C)c5=O)C(=O)N4)C1)C3)C2 (single isomer, unassigned) [Example A98B] | 280 nM | 1.8 nM | 2.7 nM | 2.3 nM | 3.3 nM | 1.3 nM | 4.1 nM | 2.7 nM | 2.9 nM | – | – | – | – | – | – | – | – | 21 nM | 7.6 nM | 0.64 nM | GI50 [2, 12]: 1.5 nM; GI50 [2, 13]: 0.54 nM; GI50 [2, 14]: 2.8 nM; GI50 [2, 15]: 1.1 nM; GI50 [2, 16]: 3 nM; GI50 [2, 17]: 1.5 nM |
